Test system: NOMO1
Assay: cell viability relative to DMSO control; higher = less cytotoxic
Conditions: 48 h
Summary of the method: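 Cells were incubated for 48 h at 37°C before CellTiter-Glo One luminescence was read. The cells were NOMO1 or SEM (500 cells/well) or P12-Ichikawa (1000 cells/well) leukemia cells, adapted for at least four passages in each medium and seeded in 1536-well plates (5 μl). Dosing used library compounds in DMSO applied by pin over 11 threefold points, 47 μM to 0.79 nM. Viability is the per-plate percentage of DMSO wells, with cell-free wells as background.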

[1] = HPLM + 10% dialyzed FBS, 0.000781 µM
[2] = HPLM + 10% dialyzed FBS, 0.00234 µM
[3] = HPLM + 10% dialyzed FBS, 0.00702 µM
[4] = HPLM + 10% dialyzed FBS, 0.0211 µM
[5] = HPLM + 10% dialyzed FBS, 0.0632 µM
[6] = HPLM + 10% dialyzed FBS, 0.19 µM
[7] = HPLM + 10% dialyzed FBS, 0.569 µM
[8] = HPLM + 10% dialyzed FBS, 1.71 µM
[9] = HPLM + 10% dialyzed FBS, 5.12 µM
[10] = HPLM + 10% dialyzed FBS, 15.4 µM
[11] = HPLM + 10% dialyzed FBS, 46.1 µM
[12] = RPMI 5 mM glucose + 10% FBS, 0.000781 µM
[13] = RPMI 5 mM glucose + 10% FBS, 0.00234 µM
[14] = RPMI 5 mM glucose + 10% FBS, 0.00702 µM
[15] = RPMI 5 mM glucose + 10% FBS, 0.0211 µM
[16] = RPMI 5 mM glucose + 10% FBS, 0.0632 µM
[17] = RPMI 5 mM glucose + 10% FBS, 0.19 µM
[18] = RPMI 5 mM glucose + 10% FBS, 0.569 µM
[19] = RPMI 5 mM glucose + 10% FBS, 1.71 µM
[20] = RPMI 5 mM glucose + 10% FBS, 5.12 µM
[21] = RPMI 5 mM glucose + 10% FBS, 15.4 µM
[22] = RPMI 5 mM glucose + 10% FBS, 46.1 µM
[23] = RPMI 5 mM glucose + 10% dialyzed FBS, 0.000781 µM
[24] = RPMI 5 mM glucose + 10% dialyzed FBS, 0.00234 µM
[25] = RPMI 5 mM glucose + 10% dialyzed FBS, 0.00702 µM
[26] = RPMI 5 mM glucose + 10% dialyzed FBS, 0.0211 µM
[27] = RPMI 5 mM glucose + 10% dialyzed FBS, 0.0632 µM
[28] = RPMI 5 mM glucose + 10% dialyzed FBS, 0.19 µM
[29] = RPMI 5 mM glucose + 10% dialyzed FBS, 0.569 µM
[30] = RPMI 5 mM glucose + 10% dialyzed FBS, 1.71 µM
[31] = RPMI 5 mM glucose + 10% dialyzed FBS, 5.12 µM
[32] = RPMI 5 mM glucose + 10% dialyzed FBS, 15.4 µM
[33] = RPMI 5 mM glucose + 10% dialyzed FBS, 46.1 µM

Row | Structure (SMILES) | cell viability [1] | cell viability [2] | cell viability [3] | cell viability [4] | cell viability [5] | cell viability [6] | cell viability [7] | cell viability [8] | cell viability [9] | cell viability [10] | cell viability [11] | cell viability [12] | cell viability [13] | cell viability [14] | cell viability [15] | cell viability [16] | cell viability [17] | cell viability [18] | cell viability [19] | cell viability [20] | cell viability [21] | cell viability [22] | cell viability [23] | cell viability [24] | cell viability [25] | cell viability [26] | cell viability [27] | cell viability [28] | cell viability [29] | cell viability [30] | cell viability [31] | cell viability [32] | cell viability [33]
1 | Cc1cc(Nc2cc(N3CCN(C)CC3)nc(/C=C/c3ccccc3)n2)n[nH]1 | 111% | 122% | 117% | 122% | 135% | 114% | 130% | 53.7% | 14.8% | 5.4% | 5.88% | 106% | 98.4% | 110% | 112% | 115% | 123% | 100% | 47.6% | 13.3% | 4.18% | 3.81% | 108% | 104% | 111% | 104% | 110% | 114% | 105% | 56.3% | 24.2% | 7.24% | 5%
2 | CC1(C)SCCN([S+](=O)([O-])c2ccc(OCC#CCO)cc2)[C@H]1C(=O)NO | 121% | 108% | 102% | 101% | 124% | 126% | 115% | 112% | 99.6% | 107% | 83.7% | 105% | 88.3% | 99.4% | 95.8% | 104% | 93% | 93.9% | 87.5% | 77.5% | 77.4% | 82.4% | 96.3% | 94.8% | 103% | 90.2% | 89.7% | 98.5% | 84.1% | 94.3% | 97.3% | 95.6% | 93.3%
3 | CCc1ccc(OCc2ccccc2C(=O)Nc2ccc3nc(C)cc(N)c3c2)cc1 | 92.1% | 107% | 105% | 117% | 115% | 118% | 127% | 114% | 15.3% | 6.13% | 4.55% | 103% | 108% | 105% | 108% | 110% | 116% | 112% | 113% | 112% | 7.05% | 4.22% | 109% | 108% | 116% | 117% | 116% | 130% | 124% | 115% | 111% | 6.5% | 4.65%
4 | Clc2cccc(Cl)c2\N=C1/NCCN1 | 117% | 101% | 118% | 105% | 125% | 135% | 121% | 118% | 132% | 128% | 122% | 102% | 113% | 124% | 120% | 112% | 118% | 113% | 124% | 105% | 116% | 111% | 105% | 130% | 109% | 123% | 122% | 121% | 123% | 137% | 120% | 114% | 115%
5 | CCn1nnc2c(N3CCOCC3)nc(-c3ccc(NC(=O)Nc4ccc(C(=O)N5CCN(C)CC5)cc4)cc3)nc21 | 117% | 109% | 94.2% | 67.2% | 63.4% | 53.9% | 101% | 65.7% | 60.7% | 51.4% | 48% | 90.8% | 107% | 94.1% | 85.6% | 76.5% | 67.7% | 105% | 79.9% | 72.4% | 69.9% | 61.2% | 89.3% | 97.2% | 89.7% | 75.3% | 60.9% | 60.2% | 89.8% | 62.5% | 53.5% | 55.9% | 56%
6 | COc1c(Cl)cc2c([nH]c3cnccc32)c1NC(=O)c1cccnc1C | 115% | 100% | 110% | 105% | 123% | 124% | 122% | 115% | 108% | 102% | 89.4% | 99.8% | 102% | 98.4% | 101% | 101% | 108% | 111% | 108% | 98.2% | 102% | 99% | 84% | 105% | 103% | 96.1% | 98.9% | 105% | 115% | 116% | 98.2% | 104% | 101%

Source: the supplement of paper PMC11451515
